From PubChem BioAssay (NCI)
Several values for one entry are separate records, joined by “and”; a condition that tells them apart may be missing. Identical values can stand only once.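 Grown in 96-well plates, cells were treated for 48 hours with each compound at five concentrations. Insufficient inhibition: endpoint recorded as highest concentration tested. Abbreviation: GI50, concentration required for 50% inhibition of growth. TGI: concentration producing complete growth inhibition.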

System: MDA-MB-468 breast
Assay: growth of human tumour cells (NCI), 48 h

Structure (SMILES)	GI50	TGI [µM]
CC(=O)OC[C@]12CC[C@@H](C(=O)CBr)[C@@H]1[C@H]1CC[C@@H]3[C@@]4(C)CCCNC(C)(C)[C@@H]4CC[C@@]3(C)[C@]1(C)CC2	2.12 µM	5.66
CCC1CN2C(=N1)c1ccccc1-c1cc(Cl)ccc12 (configuration not stated)	2.16 µM	6.85
c1csc(-c2cn3nc(-c4c[nH]c5ccccc45)sc3n2)c1	2.92 µM	27.8
CN(C)C(=S)/N=c1\ssc(=S)n1Cc1cccnc1	3.07 µM	> 100
O=C(Nc1ccncc1)C(=O)c1cn(Cc2ccc(Cl)cc2)c2ccccc12	0.0271 µM	0.346
COc1cccc2c1ccc1nc3cccc(C(=O)N[C@H](C)CN(C)C)c3nc12	0.12 µM	0.485
CC1OC(n2c3ccccc3c3c4c(c5c6ccccc6[nH]c5c32)C(=O)N(CCN[C@@H]2CCC[C@H]2N)C4=O)CC(O)C1O (some centres not stated)	1.15 µM	3
CNC(=O)c1cccc2cc(Oc3ccnc4cc(OCC5(N)CC5)c(OC)cc34)ccc12	7.41 µM	22.6
Cc1cc(Cl)cc(NS(=O)(=O)c2ccc(-c3cnc(C4CC4)o3)cc2)c1	0.12 µM	4.44
CN1CCN(CCOc2ccc(-c3cnc4c(-c5ccc(C(F)(F)F)cc5)cnn4c3)cc2)CC1	1.36 µM	2.95
CN(C)c1ccc(-c2cc(-c3c[nH]c4ccccc34)nc(N)c2C#N)cc1	1.97 µM	9.22
Cc1cc(C(=C2C=CC(=Nc3ccccc3)C=C2)c2ccc(Nc3ccccc3)cc2)ccc1N	0.332 µM	1.29
Nc1nc(N)c2nc(CNc3ccc(C(=O)NC(CC(=O)O)C(=O)O)cc3)cnc2n1 (configuration not stated)	1.37 µM	> 100
CCn1cnc(C[C@H](NC(=O)[C@@H](NC(=O)Nc2cc(C(F)(F)F)cc(C(F)(F)F)c2)C(C)C)C(=O)OC)c1	1.74 µM	3.57
O=c1ccn(C2CC(O)C(CO)O2)c(=O)[nH]1 (configuration not stated)	> 5000 µM	> 5000
O=C1NC(=C(Cl)Cl)/C(=N/S(=O)(=O)N2CCCCC2CC2(C(F)(F)F)N=N2)N1 (configuration not stated)	1.16 µM	3.91
COc1cccc(-n2nc(C)c3c(N/N=C(\C)c4ccncc4)ncnc32)c1	2.67 µM	> 25
COc1cccc(-c2nn(-c3ccccc3)cc2-c2ccnc(NCCCNC(=O)Nc3ccc(Cl)c(Cl)c3)c2)c1	1.92 µM	4.34
NC(=O)c1ccc(I)c(N=O)c1	21.3 µM	61.3
CCOC(=O)c1cc2c(n1Cc1cccc(OC)c1)-c1oncc1CCC2	0.732 µM	> 82.8
COc1ccc(C(=O)/C=C/c2cccc([N+](=O)[O-])c2)c(OC)c1	1.09 µM	3
CN[C@H](C#Cc1c(F)ccc2c1/C(=C/c1[nH]ccc1OC)C(=O)N2)CO	0.476 µM	1.45
CC1(N)CCN(c2cccnc2NC(=O)c2nc(-c3ncccc3C(F)(F)F)cnc2N)CC1	14.1 µM	52.8
CC(=O)C(=Cc1ccc(C=C(C(C)=O)C(C)=O)cc1)C(C)=O	1.51 µM	3.14
CCn1cc(C(=O)N/N=C/c2ccccc2)c(=O)c2cc(F)c(N3CCNC(C)C3)c(F)c21 (configuration not stated)	1.62 µM	3.12
O=C1C(N2CC2)=C(N2CC2)C(=O)C(N2CC2)=C1N1CC1	0.395 µM	2.44
CCCc1cc(=O)[nH]c(-n2nc(C)cc2C)n1	4.77 µM	> 100

Structure (SMILES)	GI50	TGI [µM]
COC1=CC(c2ccc[nH]2)=N/C1=C\c1[nH]c(C)c(C(=O)CCCCC(=O)NC(C)(C)C)c1C	1.52 µM	3.58
COc1ccc2c(c1)nnn1c3ncccc3c(N=O)c21	0.0323 µM and 0.126 µM	–
Cc1cc(O)c(C2=NN(c3ccc(S(N)(=O)=O)cc3)C(c3ccccc3Cl)C2)cc1Cl (configuration not stated)	2.22 µM	4.74
Cc1cc(NCCN(C(C)C)C(C)C)nc(/N=C(\N)Nc2ccc(Cl)c(C(F)(F)F)c2)n1	0.229 µM	0.595
COc1cc(Nc2c(C#N)cnc3cc(OCCCN4CCN(C)CC4)c(OC)cc23)c(Cl)cc1Cl	1.63 µM	4.14
CCC(C)[C@H]1O[C@]2(C=C[C@@H]1C)C[C@@H]1C[C@@H](C/C=C(\C)[C@@H](OC3C[C@H](OC)C(O[C@H]4C[C@H](OC)[C@@H](O)[C@H](C)O4)[C@H](C)O3)[C@@H](C)/C=C/C=C3\CO[C@@H]4[C@H](O)C(C)=C[C@@H](C(=O)O1)[C@]34O)O2 (some centres not stated)	1.03 µM	4.14
C[C@]12CCc3sc(NCCc4ccccc4)nc3C1=CC[C@@H]1[C@@H]2CC[C@]2(C)C(=O)CC[C@@H]12	2.99 µM	10.3
O=C(Nc1cccc(-n2cc(-c3ccncc3)c(-c3cc(O)cc(Cl)c3)n2)c1)Nc1ccc(Cl)c(C(F)(F)F)c1	2.08 µM	8.42
COc1cc2c(cc1O)CC[C@@H]1[C@@H]2CC[C@]2(C)[C@@H](OCCN(C)C)CC[C@@H]12	0.154 µM	0.531
COc1cccc(C2=C(c3c(C)n(C)c4ccccc34)C(=O)NC2=O)c1	7.67 µM	> 25
O=S(=O)(Nc1ccc(Br)c(Cl)c1)c1ccc(-c2cnc(C3CC3)o2)cc1	0.263 µM	2.86
O=C(Nc1cccc(-n2cc(-c3ccncc3)c(-c3ccc(Cl)c(O)c3)n2)c1)c1ccc(N2CCOCC2)c(C(F)(F)F)c1	7.04 µM	26.6
Cc1ccc(-c2nc(C#N)c(S(=O)(=O)n3nc(C)cc3N)o2)cc1	2.72 µM	7.96
NC(=O)c1ccccc1Nc1ccc2nnc(-c3ccncc3)n2n1	1.98 µM	7.32
CCCNC(=O)CCC(C)C1CCC2C3C(C[C@H](OC(C)=O)[C@]12C)[C@@]1(C)CCC2(C[C@H]1C[C@H]3OC(C)=O)OOC1(CC[C@]3(C)C4C[C@H](OC(C)=O)[C@]5(C)C(C(C)CCC(=O)NCCC)CCC5C4[C@H](OC(C)=O)C[C@@H]3C1)OO2 (some centres not stated)	24.9 µM	> 100
O=C1c2cccc(NCCN=Cc3cc([N+](=O)[O-])ccc3O)c2C(=O)c2c(NCCN=Cc3cc([N+](=O)[O-])ccc3O)cccc21	1.86 µM	20.1
CN(C)C(=S)/N=c1\ssc(=S)n1Cc1ccccc1	0.5 µM	35.2
C=C1/C(=C\C=C2/CCC[C@]3(C)[C@@H]([C@H](C)CCCC(C)(C)O)CC[C@@H]23)C[C@@H](OC(=O)CBr)C[C@@H]1O	2.56 µM	7.74
COC(=O)[C@@]12OC[C@]34[C@H]([C@@H](O)[C@@H]1O)[C@@]1(C)[C@H](O)C(=O)C=C(C)[C@@H]1C[C@H]3OC(=O)C(OC(C)=O)[C@@H]24 (some centres not stated)	0.0208 µM	0.0624
CCN(Cc1ccc(F)cc1)c1ccc(CO)c(F)c1	0.167 µM	0.461
COc1ccc(-c2nc(/C=N/Nc3cc(C)nc4ccc(Cl)cc34)c(C)o2)cc1	1.93 µM	3.71
COc1ccc(C2CC(C)(O)Oc3cc4c(cc32)OCO4)cc1 (configuration not stated)	18.9 µM	55.7
COc1ccc(-c2cc(-c3cccc4ccccc34)n3c(n2)nc2ccccc23)cc1OC	2.7 µM	> 100
COc1ccc(-c2nc(-c3ccccc3)c(-c3ccccc3)[nH]2)cc1OC1CCCC1	> 100 µM	> 100
CNCCCn1c2c(c3ccc([N+](=O)[O-])cc3c1=O)C(=O)c1cc(OC)cnc1-2	0.0335 µM	0.189
C=CC1CN2CCC1CC2C(O)c1ccnc2ccc(OC)cc12 (configuration not stated)	> 100 µM	> 100
CCCCC[C@H]1C/C=C2/C(=O)C=C[C@@H]2C/C=C\CCCC(=O)O[C@@H](CCCCC)C/C=C2/C(=O)C=C[C@@H]2C/C=C\CCCC(=O)O1	0.371 µM	1.01
